Tests used:
[1] = system: RSK3(Kin.Dom.2-C-terminal); experiment: KINOMEscan; type: binding; details: 1000 nM
CSNK1G2 = experiment: KINOMEscan; type: binding; details: 1000 nM
EGFR(L858R,T790M) = experiment: KINOMEscan; type: binding; details: 1000 nM
SRC = experiment: KINOMEscan; type: binding; details: 1000 nM
DYRK1B = experiment: KINOMEscan; type: binding; details: 1000 nM
EPHB2 = experiment: KINOMEscan; type: binding; details: 1000 nM
TRPM6 = experiment: KINOMEscan; type: binding; details: 1000 nM
GCN2(Kin.Dom.2,S808G) = experiment: KINOMEscan; type: binding; details: 1000 nM
TAOK1 = experiment: KINOMEscan; type: binding; details: 1000 nM
ULK2 = experiment: KINOMEscan; type: binding; details: 1000 nM
EPHB4 = experiment: KINOMEscan; type: binding; details: 1000 nM
LIMK2 = experiment: KINOMEscan; type: binding; details: 1000 nM
MERTK = experiment: KINOMEscan; type: binding; details: 1000 nM
[2] = system: ABL1(H396P)-nonphosphorylated; experiment: KINOMEscan; type: binding; details: 1000 nM
PIK3CA(I800L) = experiment: KINOMEscan; type: binding; details: 1000 nM
STK33 = experiment: KINOMEscan; type: binding; details: 1000 nM
BLK = biological target: T1, BLK (Homo sapiens, UniProt P51451); experiment: ADP-Glo biochemical kinase assay
T1 construct: purchased Invitrogen (Carlsbad, CA, USA)
T1 sequence (P51451 whole entry): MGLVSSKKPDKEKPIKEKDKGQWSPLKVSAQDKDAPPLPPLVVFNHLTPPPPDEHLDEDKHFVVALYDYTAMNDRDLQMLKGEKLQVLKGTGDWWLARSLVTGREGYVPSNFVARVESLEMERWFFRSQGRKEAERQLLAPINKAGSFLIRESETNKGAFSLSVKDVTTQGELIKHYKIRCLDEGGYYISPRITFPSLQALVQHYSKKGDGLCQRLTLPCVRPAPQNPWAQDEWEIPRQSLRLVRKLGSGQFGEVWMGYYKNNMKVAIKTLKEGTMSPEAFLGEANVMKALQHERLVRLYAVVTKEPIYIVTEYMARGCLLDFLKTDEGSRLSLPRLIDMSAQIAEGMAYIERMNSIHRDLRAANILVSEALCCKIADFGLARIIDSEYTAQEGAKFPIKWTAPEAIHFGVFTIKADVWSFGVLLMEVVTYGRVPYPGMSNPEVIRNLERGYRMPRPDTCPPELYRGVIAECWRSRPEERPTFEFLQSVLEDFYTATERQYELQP
From the text: (§1) The biochemical tests of BMX, BLK, JAK3, TXK, HER2, HER4, ITK, EGFR, and BTK were provided by Invitrogen (Carlsbad, CA, USA).

HER4 = biological target: T2, HER4 (Homo sapiens, UniProt Q15303); experiment: ADP-Glo biochemical kinase assay
T2 construct: purchased Invitrogen (Carlsbad, CA, USA)
T2 sequence (Q15303 26-1308): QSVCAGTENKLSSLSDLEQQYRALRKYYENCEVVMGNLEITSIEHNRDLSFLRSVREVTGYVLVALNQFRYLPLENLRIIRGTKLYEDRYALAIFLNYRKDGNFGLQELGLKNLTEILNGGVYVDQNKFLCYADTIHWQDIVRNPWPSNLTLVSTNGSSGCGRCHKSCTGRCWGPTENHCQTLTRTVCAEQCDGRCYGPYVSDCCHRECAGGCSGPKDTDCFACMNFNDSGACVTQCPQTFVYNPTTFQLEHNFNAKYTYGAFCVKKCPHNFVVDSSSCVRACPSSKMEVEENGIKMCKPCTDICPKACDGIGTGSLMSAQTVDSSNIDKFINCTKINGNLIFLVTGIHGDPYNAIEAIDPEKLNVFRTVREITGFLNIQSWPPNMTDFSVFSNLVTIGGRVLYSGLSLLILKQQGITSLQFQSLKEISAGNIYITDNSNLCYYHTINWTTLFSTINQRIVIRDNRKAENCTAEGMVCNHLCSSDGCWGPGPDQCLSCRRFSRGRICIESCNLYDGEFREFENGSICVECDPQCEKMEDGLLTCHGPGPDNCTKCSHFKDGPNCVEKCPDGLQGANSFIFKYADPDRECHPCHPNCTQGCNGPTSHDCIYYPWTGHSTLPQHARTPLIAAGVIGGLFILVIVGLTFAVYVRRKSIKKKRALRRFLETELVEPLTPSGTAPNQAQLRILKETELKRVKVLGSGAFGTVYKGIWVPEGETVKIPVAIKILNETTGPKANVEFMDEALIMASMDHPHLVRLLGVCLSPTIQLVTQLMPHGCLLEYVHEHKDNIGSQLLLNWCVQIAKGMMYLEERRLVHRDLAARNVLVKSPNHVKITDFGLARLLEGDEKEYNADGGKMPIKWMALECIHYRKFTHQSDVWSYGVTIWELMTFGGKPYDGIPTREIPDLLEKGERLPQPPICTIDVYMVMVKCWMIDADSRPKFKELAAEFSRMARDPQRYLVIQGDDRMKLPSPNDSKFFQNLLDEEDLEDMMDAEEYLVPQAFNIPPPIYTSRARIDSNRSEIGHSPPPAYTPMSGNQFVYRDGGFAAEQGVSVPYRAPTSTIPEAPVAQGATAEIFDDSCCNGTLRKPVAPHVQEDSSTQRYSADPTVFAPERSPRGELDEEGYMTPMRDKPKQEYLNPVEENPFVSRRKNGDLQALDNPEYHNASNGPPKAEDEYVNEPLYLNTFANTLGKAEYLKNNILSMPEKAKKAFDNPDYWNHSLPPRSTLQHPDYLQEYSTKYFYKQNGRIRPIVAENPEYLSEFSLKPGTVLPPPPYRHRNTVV
From the text: as §1

RET(V804M) = experiment: KINOMEscan; type: binding; details: 1000 nM
SRPK2 = experiment: KINOMEscan; type: binding; details: 1000 nM
LKB1 = experiment: KINOMEscan; type: binding; details: 1000 nM
ASK1 = experiment: KINOMEscan; type: binding; details: 1000 nM
MARK4 = experiment: KINOMEscan; type: binding; details: 1000 nM
EPHA1 = experiment: KINOMEscan; type: binding; details: 1000 nM
ACVR2B = experiment: KINOMEscan; type: binding; details: 1000 nM
CDK5 = experiment: KINOMEscan; type: binding; details: 1000 nM
p38-delta = experiment: KINOMEscan; type: binding; details: 1000 nM
PIK3CD = experiment: KINOMEscan; type: binding; details: 1000 nM
MYLK2 = experiment: KINOMEscan; type: binding; details: 1000 nM
SK-OV-3 cells = experiment: NK-cell-mediated ADCC, LDH release cytotoxicity assay, Herceptin; type: cell-based, human
Experimental: The cytotoxicity of NK cells was measured using the CyQUANT™ LDH Cytotoxicity Assay Kit (Invitrogen™, #C20300) according to the manufacturer’s instructions. Briefly, enriched NK cells (6 × 10^5 /ml) were cultured with the same volume of Mino cell and SK-OV-3 cell (1-2 × 10^4 /ml) in a 96-well plate for 4 h with Rituximab and Herceptin (10 μg/mL) and CHMFL-BTK-85 or PCI32765 at 37°C in a humidified CO2 incubator prior to removal of the supernatant for lactate dehydrogenase (LDH) release measurements. Calculate % Cytotoxicity by using the following formula: %Cytotoxicity = (Compound-treated LDH activity-Spontaneous LDH activity)/(Maximum LDH activity-Spontaneous LDH activity)*100.

CDC2L1 = experiment: KINOMEscan; type: binding; details: 1000 nM
PAK3 = experiment: KINOMEscan; type: binding; details: 1000 nM
PRKG2 = experiment: KINOMEscan; type: binding; details: 1000 nM
[3] = system: ABL1(Q252H)-nonphosphorylated; experiment: KINOMEscan; type: binding; details: 1000 nM
SLK = experiment: KINOMEscan; type: binding; details: 1000 nM
PKNB(M.tuberculosis) = experiment: KINOMEscan; type: binding; details: 1000 nM
PIK3CG = experiment: KINOMEscan; type: binding; details: 1000 nM

C=CC(=O)Nc1cc(Nc2cc(-c3cccc(NC(=O)c4cc5c(s4)CCCC5)c3C)cn(C)c2=O)ccc1N1CCN(CC)CC1 [CHMFL-BTK-85]
Percent Control [1]: 79% | Percent Control (CSNK1G2): 98% | Percent Control (EGFR(L858R,T790M)): 99% | Percent Control (SRC): 77% | Percent Control (DYRK1B): 99% | Percent Control (EPHB2): 84% | Percent Control (TRPM6): 100% | Percent Control (GCN2(Kin.Dom.2,S808G)): 75% | Percent Control (TAOK1): 94% | Percent Control (ULK2): 100% | Percent Control (EPHB4): 67% | Percent Control (LIMK2): 100% | Percent Control (MERTK): 84% | Percent Control [2]: 92% | Percent Control (PIK3CA(I800L)): 100% | Percent Control (STK33): 90% | IC50 (BLK; read-out: IC50 against BLK): > 10 µM | selectivity over BLK (BLK; vs BTK): more than 1000 fold | IC50 (HER4; read-out: IC50 against HER4): > 10 µM | selectivity over HER4 (HER4; vs BTK): more than 1000 fold | Percent Control (RET(V804M)): 68% | Percent Control (SRPK2): 100% | Percent Control (LKB1): 92% | Percent Control (ASK1): 86% | Percent Control (MARK4): 66% | Percent Control (EPHA1): 90% | Percent Control (ACVR2B): 99% | Percent Control (CDK5): 98% | Percent Control (p38-delta): 80% | Percent Control (PIK3CD): 100% | Percent Control (MYLK2): 91% | effect on antibody-dependent NK-cell-mediated cytotoxicity (ADCC) (SK-OV-3 cells): did not affect | Percent Control (CDC2L1): 100% | Percent Control (PAK3): 100% | Percent Control (PRKG2): 95% | Percent Control [3]: 84% | Percent Control (SLK): 95% | Percent Control (PKNB(M.tuberculosis)): 88% | Percent Control (PIK3CG): 100%

From PMC7490411 (Signal Transduction and Targeted Therapy, 2020)
